Measurements: patent US20120245155A1, “FUSED HETEROCYCLIC COMPOUND HAVING AMINO GROUP” (Shionogi & Co., Ltd., priority 2009, published 2012)

Legend:
[1] = system: Neuroblastoma SH—SY5Y cells (SH/APPwt) with human wild-type β-APP excessively expressed; experiment: Measurement of β-amyloid (Aβ) production inhibitory effect in cell; format: cell-based; details: 24 hours incubation, Amyloid β 1-40 by HTRF, read-out: amount needed to inhibit Aβ production by 50% (IC50)
Description: Neuroblastoma SH—SY5Y cells (SH/APPwt) with human wild-type p-APP excessively expressed therein were prepared at 8×10^5 cells/mL, and 150 μl portions thereof were inoculated into each well of a 96-well culture plate (Falcon). The cells were cultured for 2 hours at 37° C. in a 5% gaseous carbon dioxide incubator. Then, a solution which had been preliminarily prepared by adding and suspending the test compound (DMSO (dimethyl sulfoxide) solution) so as to be 2 μl/50 μl medium was added to the cell sap. Namely, the final DMSO concentration was 1%, and the amount of the cell culture was 200 μl. After the incubation was performed for 24 hours from the addition of the test compound, 100 μl of the culture supernatant was collected from each fraction. The amount of the Aβ in each fraction was measured.
The Aβ amount was measured as follows. 10 μl of a homogeneous time resolved fluorescence (HTRF) measurement reagent (Amyloid β 1-40 peptide; IBA Molecular Holding, S. A.) and 10 μl of the culture supernatant were put into a 384-well half area microplate (black microplate, Costar) and mixed with each other, and then left standing overnight at 4° C. while the light was shielded. Then, the fluorescence intensity (excitation wavelength: 337 nm, measurement wavelength: 620 nm and 665 nm) was measured with a Wallac 1420 multilabel counter (Perkin Elmer life sciences). The Aβ amount was determined from the count rate at each measurement wavelength (10000× Count 665/Count 620), and the amount needed to inhibit Aβ production by 50% (IC50) was calculated from at least six different dosages.

hERG (IKr) = target: T1, hERG (IKr) (Homo sapiens, UniProt Q12809); experiment: hERG test; format: cell-based; details: pH 7.4, HEK293 cells expressing hERG channel, whole cell patch clamp, concentration not given, read-out: % inhibition relative to the tail peak current (IKr)
T1 construct: expressed in transfected cells; host or cells: HEK293 cells
T1 sequence (Q12809 whole entry): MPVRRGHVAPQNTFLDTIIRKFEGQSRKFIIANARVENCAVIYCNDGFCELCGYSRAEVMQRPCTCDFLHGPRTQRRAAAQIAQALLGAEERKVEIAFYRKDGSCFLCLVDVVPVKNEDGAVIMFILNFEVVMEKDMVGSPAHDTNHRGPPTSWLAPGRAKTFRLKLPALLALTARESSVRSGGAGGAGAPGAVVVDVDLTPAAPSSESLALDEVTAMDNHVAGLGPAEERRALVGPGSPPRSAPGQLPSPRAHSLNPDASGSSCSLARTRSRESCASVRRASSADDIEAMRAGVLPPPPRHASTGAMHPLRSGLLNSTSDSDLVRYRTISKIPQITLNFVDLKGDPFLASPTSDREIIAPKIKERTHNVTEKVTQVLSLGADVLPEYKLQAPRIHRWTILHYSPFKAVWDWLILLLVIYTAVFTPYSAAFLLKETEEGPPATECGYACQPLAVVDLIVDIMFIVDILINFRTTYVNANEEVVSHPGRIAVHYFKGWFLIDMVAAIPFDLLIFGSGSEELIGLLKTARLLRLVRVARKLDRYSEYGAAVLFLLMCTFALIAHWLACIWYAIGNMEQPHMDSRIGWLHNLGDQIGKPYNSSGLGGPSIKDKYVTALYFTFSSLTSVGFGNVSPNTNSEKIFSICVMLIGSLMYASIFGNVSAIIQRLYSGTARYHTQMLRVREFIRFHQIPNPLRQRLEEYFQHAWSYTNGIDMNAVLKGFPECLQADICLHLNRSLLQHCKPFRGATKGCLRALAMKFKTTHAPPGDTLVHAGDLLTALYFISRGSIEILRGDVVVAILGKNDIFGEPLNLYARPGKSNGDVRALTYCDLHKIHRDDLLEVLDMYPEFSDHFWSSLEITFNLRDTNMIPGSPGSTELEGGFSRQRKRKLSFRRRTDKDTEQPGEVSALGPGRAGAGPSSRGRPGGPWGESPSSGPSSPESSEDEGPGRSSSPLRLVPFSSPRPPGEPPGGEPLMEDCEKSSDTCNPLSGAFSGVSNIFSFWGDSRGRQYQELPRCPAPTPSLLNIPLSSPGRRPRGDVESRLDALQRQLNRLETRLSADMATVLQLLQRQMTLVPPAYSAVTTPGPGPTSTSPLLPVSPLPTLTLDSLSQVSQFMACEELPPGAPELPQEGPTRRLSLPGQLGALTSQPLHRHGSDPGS
Description: For the purpose of assessing risk of an electrocardiogram QT interval prolongation, effects on delayed rectifier K+ current (IKr), which plays an important role in the ventricular repolarization process of the compound of the present invention, is studied using HEK293 cells expressing human ether-a-go-go related gene (hERG) channel.
After a cell was retained at a membrane potential of −80 mV by whole cell patch clamp method using an automated patch clamp system (PatchXpress 7000A, Axon Instruments Inc.), IKr induced by depolarization pulse stimulation at +40 mV for 2 seconds and, further, repolarization pulse stimulation at −50 mV for 2 seconds was recorded. […] From the recording IKr, an absolute value of the tail peak current was measured based on the current value at the resting membrane potential using analysis software (DataXpress ver. 1, Molecular Devices Corporation). Further, the % inhibition relative to the tail peak current before application of the test compound was calculated, and compared with the vehicle-applied group (0.1% dimethyl sulfoxide solution) to assess influence of the test compound on IKr.

IC50 [1]: ≤ 1000 nM
Compound: NC1=NC2(c3cc(-c4cncnc4)ccc3F)CCCC2CO1 (racemic) [Compound I-39]
inhibition at 10 min (hERG (IKr)): 19.3%
